Measurements as given in PubChem BioAssay (NCI).
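Cultured in 96-well plates, cells were exposed to test compound for 48 hours across five concentrations. The concentration for 50% growth inhibition is given as GI50. TGI denotes the concentration required for complete inhibition of growth.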

Experiments:
Test in all cases: growth of human tumour cells (NCI), 48 h
HCC-2998 colon = tested on: HCC-2998 colon
SN12C renal = tested on: SN12C renal
HT29 colon = tested on: HT29 colon
NCI-H522 lung = tested on: NCI-H522 lung
SF-295 CNS = tested on: SF-295 CNS
CAKI-1 renal = tested on: CAKI-1 renal
LOX IMVI melanoma = tested on: LOX IMVI melanoma
OVCAR-5 ovarian = tested on: OVCAR-5 ovarian
UACC-62 melanoma = tested on: UACC-62 melanoma
HOP-92 NSCLC = tested on: HOP-92 NSCLC

Structure (SMILES) | TGI (HCC-2998 colon) [µM] | TGI (SN12C renal) [µM] | TGI (HT29 colon) [µM] | TGI (NCI-H522 lung) [µM] | TGI (SF-295 CNS) [µM] | TGI (CAKI-1 renal) [µM] | TGI (LOX IMVI melanoma) [µM] | TGI (OVCAR-5 ovarian) [µM] | TGI (UACC-62 melanoma) [µM] | TGI (HOP-92 NSCLC) [µM] | GI50 (SN12C renal) [µM] | GI50 (HT29 colon) [µM] | GI50 (NCI-H522 lung) [µM] | GI50 (SF-295 CNS) [µM] | GI50 (CAKI-1 renal) [µM] | GI50 (LOX IMVI melanoma) [µM] | GI50 (OVCAR-5 ovarian) [µM] | GI50 (HCC-2998 colon) [µM] | GI50 (UACC-62 melanoma) [µM] | GI50 (HOP-92 NSCLC) [µM]
C=CCN=C1NC(=O)C(CC(=O)Nc2cccc(Cl)c2)S1 (configuration not stated) | > 100 | > 100 | > 100 | > 100 | > 100 | > 100 | > 100 | > 100 | > 100 |  |  |  |  |  |  |  |  |  |  | 
CSc1ccc(Cc2cc(C(C)(C)C)cc(C(C)(C)C)c2O)cc1 | 32.5 | 28.6 | 27.5 |  | 31.6 | 30.5 | 22.4 | 13.2 | 29.2 |  |  |  |  |  |  |  |  |  |  | 
CC1=NC(C)=C(/C(C)=N/NC(=O)c2ccccc2O)C(C)/C1=C(/C)NNC(=O)c1ccccc1O (configuration not stated) |  | > 100 | > 100 | 43.6 |  | > 100 | 51.7 | 92.1 | 26.3 | 85.9 |  |  |  |  |  |  |  |  |  | 
C/C(=N\NC(=O)c1ccccc1O)c1c(O)cc(C)oc1=O | > 100 | > 100 | > 100 | > 100 | > 100 |  | > 100 | > 100 | > 100 | 68.3 |  |  |  |  |  |  |  |  |  | 
COc1ccc(C2=NN(C(C)=O)c3nc4ccccc4nc3O2)cc1 | > 100 | > 100 | > 100 | 63.8 | > 100 |  |  |  | > 100 | 62.5 |  |  |  |  |  |  |  |  |  | 
CC(=O)CCc1ccc(Oc2c3ccccc3nc3occc23)cc1 |  | 96.5 | 50.6 | > 100 | 40.9 | 42 | 41.8 | 38.9 |  |  | 26.7 | 18 | 26.9 | 15.7 | 18.2 | 14.8 | 19 |  |  | 
Cn1c(=O)nc2n(-c3ccc(F)c(F)c3)c3ccccc3nc-2c1=O | 23.7 | 53.8 | 16 | 25.8 | 32.4 | > 100 |  | 37.5 | 5.47 |  |  |  |  |  |  |  |  |  |  | 
COC(=O)C(/C(=N/N)C(=O)Nc1cc(Cl)ccc1Cl)c1nc2ccc([N+](=O)[O-])cc2[nH]c1=O (configuration not stated) | > 100 | > 100 | > 100 | > 100 | > 100 |  | > 100 | > 100 | > 100 | > 100 |  |  |  |  |  |  |  |  |  | 
O=C(Nc1ccc(Cl)cc1)c1cc(NCc2cc(O)ccc2O)ccc1O | 21.4 | 22.6 | 58.5 | 1.88 | 36.3 | 18.2 | 23.1 | 19 | 5.3 |  | 7.47 | 22.2 | 0.488 | 15.4 | 4.09 | 4.1 | 4.77 | 7.7 | 2.06 | 
O=C(N/C(=C\c1cccc([N+](=O)[O-])c1)c1nc2c3c(ccc2[nH]1)C(=O)c1ccccc1C3=O)c1ccccc1 |  | > 100 | > 100 | > 100 |  | > 100 |  | 90.4 | > 100 | > 100 |  |  |  |  |  |  |  |  |  | 
COC(=O)CCCCCOS(=O)(=O)c1ccc(C)cc1 | > 100 | > 100 | > 100 | > 100 | > 100 |  | > 100 | > 100 | > 100 | > 100 |  |  |  |  |  |  |  |  |  | 
COc1ccc(Cc2ccc3[nH]c(=O)cc(C)c3c2)cc1S(=O)(=O)O |  | > 100 | > 100 | > 100 | > 100 | > 100 | > 100 | > 100 | > 100 | > 100 |  |  |  |  |  |  |  |  |  | 
COc1nc(NC2OC(COC(C)=O)C(OC(C)=O)C(OC(C)=O)C2OC(C)=O)c(N=C(C)C(C)=O)c(=O)n1C (configuration not stated) | > 100 | > 100 | > 100 |  | > 100 | > 100 | > 100 | > 100 | > 100 | > 100 |  |  |  |  |  |  |  |  |  | 
COC(=O)[C@@H](C)C[C@H](Cc1ccc(F)cc1)NC(=O)c1csc([C@@H](C[C@H](C(C)C)N(C)C(=O)[C@@H](NC(=O)[C@H]2CCCCN2C)C2CC2)OC(C)=O)n1 | > 25 | > 25 | > 25 | 0.213 | > 25 |  | > 25 | > 25 | > 25 | > 12.8 | 0.357 | 0.107 | 0.0577 | 0.585 |  | 0.272 | 1.07 | 2.48 | 0.137 | 0.917
